According to patent US9339503B2, “Tetrahydro-quinazolinone derivatives as TANK and PARP inhibitors” (MERCK PATENT GMBH, priority 2012, dated 2016):

How the values were obtained:
tankyrase 1/2 = assay: Measurement of cellular inhibition of tankyrase (Axin2 level, Luminex based assay, DLD1 cells); conditions: 24 hours, increase of Axin2 level, read-out: EC50 tankyrase 1/2 (cell assay)
Method: Measurement of Cellular Inhibition of Tankyrase
Since Tankyrases have been described to modulate cellular level of Axin2 (Huang et al., 2009; Nature) the increase of Axin2 level is used as read-out for determination of cellular inhibition of Tankyrases in a Luminex based assay.
Cells of the colon carcinoma cell line DLD1 are plated in 96 well plates with 1.5×10^4 cells per well. Next day, cells are treated with a serial-dilution of test compound in seven steps as triplicates with a final DMSO concentration of 0.3%. After 24 hours, cells are lysed in lysis buffer (20 mM Tris/HCl pH 8.0, 150 mM NaCl, 1% NP40, 10% Glycerol) and lysates are cleared by centrifugation through a 96 well filter plate (0.65 μm). Axin2 protein is isolated from cell lysates by incubation with a monoclonal anti-Axin2 antibody (R&D Systems #MAB6078) that is bound to fluorescent carboxybeads. Then, bound Axin2 is specifically detected with a polyclonal anti-Axin2 antibody (Cell Signaling #2151) and an appropriate PE-fluorescent secondary antibody. The amount of isolated Axin2 protein is determined in a Luminex^200 machine (Luminex Corporation) according to the manufacturer's instruction by counting 100 events per well. […] For analysis, the obtained data were normalized against the untreated solvent control and fitted for determination of the EC50 values using the Assay Explorer software (Accelrys).

[1] = molecular target: T1, GST-tagged Tankyrase-1 (1023-1327 aa) (Homo sapiens, UniProt O95271); assay: Tankyrase 1 autoparsylation assay (HTRF enzyme assay); format: biochemical
T1 construct: GST-tagged Tankyrase-1 (1023-1327 aa)
T1 sequence (O95271 1023-1327): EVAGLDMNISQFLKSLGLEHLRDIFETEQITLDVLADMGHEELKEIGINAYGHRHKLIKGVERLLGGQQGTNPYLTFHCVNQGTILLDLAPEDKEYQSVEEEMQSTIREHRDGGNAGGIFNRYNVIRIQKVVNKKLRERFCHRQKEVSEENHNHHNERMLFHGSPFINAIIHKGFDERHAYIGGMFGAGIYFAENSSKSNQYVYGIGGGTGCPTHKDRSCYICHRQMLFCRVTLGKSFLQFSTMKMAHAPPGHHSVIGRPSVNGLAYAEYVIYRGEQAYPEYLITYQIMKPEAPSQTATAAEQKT
Method: (§1) The autoparsylation assay was run in two steps: the enzymatic reaction in which GST-tagged Tankyrase-1, resp Tankyrase-2 transferred biotinylated ADP-ribose to itself from biotinylated NAD as co-substrate and the detection reaction where a time resolved FRET between cryptate labelled anti-GST bound to the GST tag of the enzyme and Xlent® labelled-streptavidin bound the biotin-parsylation residue was analysed. The autoparsylation activity was detectable directly via the increase in HTRF signal.
(§2) The autoparsylation assay was performed as 384-well HTRF® (Cisbio, Codolet, France) assay format in Greiner low volume nb 384-well microtiter plates and was used for high throughput screen. 250 nM GST-tagged Tankyrase-1 (1023-1327 aa), respectively about 250 nM GST-tagged Tankyrase-2 (873-1166 aa) and 5 μM bio-NAD (Biolog, Life science Inst., Bremen, Germany) as co-substrate were incubated in a total volume of 5 μl (50 mM HEPES, 4 mM Mg-chloride, 0.05% Pluronic F-68, 1.4 mM DTT, 0.5% DMSO, pH 7.7) in the absence or presence of the test compound (10 dilution concentrations) for 90 min at 30° C. The reaction was stopped by the addition of 1 μl 50 mM EDTA solution. 2 μl of the detection solution (1.6 μM SA-Xlent® (Cisbio, Codolet, France), 7.4 nM Anti-GST-K® (Eu-labelled anti-GST, Cisbio, Codolet, France) in 50 mM HEPES, 800 mM KF, 0.1% BSA, 20 mM EDTA, 0.1% CHAPS, pH 7.0) were added. After 1 h incubation at room temperature the HTRF was measured with an Envision multimode reader (Perkin Elmer LAS Germany GmbH) at excitation wavelength 340 nm (laser mode) and emission wavelengths 615 nm and 665 nm. The ratio of the emission signals was determined. The full value used was the inhibitor-free reaction. The pharmacological zero value used was XAV-939 (Tocris) in a final concentration of 5 μM. The inhibitory values (IC50) were determined using either the program Symyx Assay Explorer® or Condosseo® from GeneData.

[2] = molecular target: T2, GST-tagged Tankyrase-2 (873-1166 aa) (Homo sapiens, UniProt Q9H2K2); assay: Tankyrase 2 autoparsylation assay (HTRF enzyme assay); format: biochemical
T2 construct: GST-tagged Tankyrase-2 (873-1166 aa)
T2 sequence (Q9H2K2 873-1166): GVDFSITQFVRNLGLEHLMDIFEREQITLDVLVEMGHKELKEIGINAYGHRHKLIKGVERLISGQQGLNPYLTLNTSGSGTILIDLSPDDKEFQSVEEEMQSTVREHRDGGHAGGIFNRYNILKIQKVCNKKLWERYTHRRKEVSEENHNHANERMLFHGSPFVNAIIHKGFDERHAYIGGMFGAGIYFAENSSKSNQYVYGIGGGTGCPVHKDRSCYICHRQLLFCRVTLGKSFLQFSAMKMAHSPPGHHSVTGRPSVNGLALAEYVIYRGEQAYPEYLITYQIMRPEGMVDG
Method: as §1, §2

[3] = molecular target: T3, GST-tagged Tnks-2 (873-1166 aa) (Homo sapiens, UniProt Q9H2K2); assay: TNKS 2 activity ELISA (autoparsylation assay); format: biochemical; conditions: read-out: IC50 tankyrase 2 (ELISA assay)
T3 construct: GST-tagged Tnks-2 (873-1166 aa, prepared in-house); made in house
T3 sequence (Q9H2K2 873-1166): as above
Method: Biochemical Activity Testing of TNKS 1 and 2: Activity ELISA (Autoparsylation Assay)
For analysis of autoparsylation activity of TNKS 1 and 2 an activity ELISA was performed: In the first step GST tagged TNKS was captured on a Glutathione coated plate. Then the activity assay with biotinylated NAD was performed in the absence/presence of the compounds. During the enzymatic reaction GST tagged TNKS transferred biotinylated ADP-ribose to itself from biotinylated NAD as co-substrate. For the detection streptavidin-HRP conjugate was added that bound to the biotinylated TNKS and was thereby captured to the plates. The amount of biotinylated resp autoparsylated TNKS was detected with a luminescence substrate for HRP. The level of the luminescence signal correlated directly with the amount of autoparsylated TNKS and therefore with activity of TNKS.
The activity ELISA was performed in 384 well Glutathione coated microtiter plates (Express capture Glutathione coated plate, Biocat, Heidelberg, Germany). The plates were pre-equilibrated with PBS. Then the plates were incubated with 50 μl 20 ng/well GST-tagged Tnks-1 (1023-1327 aa, prepared in-house), respectively GST-tagged Tnks-2 (873-1166 aa, prepared in-house) in assay buffer (50 mM HEPES, 4 mM Mg-chloride, 0.05% Pluronic F-68, 2 mM DTT, pH 7.7) overnight at 4° C. The plates were washed 3 times with PBS-Tween-20. The wells were blocked by incubation at room temperature for 20 minutes with 50 μl blocking buffer (PBS, 0.05% Tween-20, 0.5% BSA). Afterwards the plates were washed 3 times with PBS-Tween-20. The enzymatic reaction was performed in 50 μl reaction solution (50 mM HEPES, 4 mM Mg-chloride, 0.05% Pluronic F-68, 1.4 mM DTT, 0.5% DMSO, pH 7.7) with 10 μM bio-NAD (Biolog, Life science Inst., Bremen, Germany) as co-substrate in the absence or presence of the test compound (10 dilution concentrations) for 1 hour at 30° C. The reaction was stopped by 3 times washing with PBS-Tween-20. For the detection 50 μl of 20 ng/μl Streptavidin, HRP conjugate (MoBiTec, Göttingen, Germany) in PBS/0.05% Tween-20/0.01% BSA were added and the plates were incubated for 30 minutes at room temperature. After three times washing with PBS-Tween-20 50 μl of SuperSignal ELISA Femto Maximum sensitivity substrate solution (ThermoFisherScientific (Pierce), Bonn, Germany) were added. Following a 1 minute incubation at room temperature luminescence signals were measured with an Envision multimode reader (Perkin Elmer LAS Germany GmbH) at 700 nm. The full value used was the inhibitor-free reaction. The pharmacological zero value used was XAV-939 (Tocris) in a final concentration of 5 μM. The inhibitory values (IC50) were determined using either the program Symyx Assay Explorer® or Condosseo® from GeneData.

Row | SMILES | EC50 (tankyrase 1/2) [µM] | IC50 [1] [µM] | IC50 [2] [µM] | IC50 [3] [µM]
1 | COc1ccc(N2CCN(c3nc4c(c(=O)[nH]3)CCCC4)CC2)cc1 [Compound A3, 2-[4-(4-methoxy-phenyl)-piperazin-1-yl]-5,6,7,8-tetrahydro-3H-quinazolin-4-one] | 0.3 to 3 | 0.3 to 3 | 0.3 to 3 | < 0.3
2 | O=c1[nH]c(N2CCN(c3ccc(F)cc3)CC2)nc2c1CCCC2 [Compound A6, 2-[4-(4-Fluorophenyl)piperazin-1-yl]-5,6,7,8-tetrahydro-3H-quinazolin-4-one] | 0.3 to 3 | 0.3 to 3 | 0.3 to 3 | < 0.3
3 | COc1cccc(N2CCN(c3nc4c(c(=O)[nH]3)CCCC4)CC2)c1 [Compound A7, 2-[4-(3-Methoxyphenyl)piperazin-1-yl]-5,6,7,8-tetrahydro-3H-quinazolin-4-one] | 0.3 to 3 | < 0.3 | 0.3 to 3 | < 0.3
4 | O=c1[nH]c(N2CCN(c3ccccc3Cl)CC2)nc2c1CCCC2 [Compound A9, 2-[4-(2-Chlorophenyl)piperazin-1-yl]-5,6,7,8-tetrahydro-3H-quinazolin-4-one] | 0.3 to 3 | < 0.3 | 0.3 to 3 | < 0.3
5 | COc1ccccc1N1CCN(c2nc3c(c(=O)[nH]2)CCCC3)CC1 [Compound A12, 2-[4-(2-Methoxyphenyl)piperazin-1-yl]-5,6,7,8-tetrahydro-3H-quinazolin-4-one] | 0.3 to 3 | < 0.3 | 0.3 to 3 | < 0.3
6 | N#Cc1ccccc1N1CCN(c2nc3c(c(=O)[nH]2)CCCC3)CC1 [Compound A33, 2-[4-(4-oxo-5,6,7,8-tetrahydro-3H-quinazolin-2-yl)piperazin-1-yl]benzonitrile] | 0.3 to 3 | < 0.3 | 0.3 to 3 | < 0.3
7 | COc1cc(F)ccc1N1CCN(c2nc3c(c(=O)[nH]2)CCCC3)CC1 [Compound A36, 2-[4-(4-fluoro-2-methoxy-phenyl)piperazin-1-yl]-5,6,7,8-tetrahydro-3H-quinazolin-4-one] | 0.3 to 3 | < 0.3 | 0.3 to 3 | < 0.3
